# Reference: US6407080B2, “N-(pyrimidinyl)-aspartic acid analogs as interleukin-1β converting enzyme inhibitors” (Vertex Pharmaceuticals Incorporated, priority 1994, dated 2002)
# Columns and labels:
# [1] = tested on: release of mature IL-1β from human monocytes; assay: Human monocyte pulse chase assay, inhibition of release of mature IL-1β (called "in vivo"); assay type: cell-based; conditions: freshly isolated human monocytes activated with fixed S. aureus, 2-3 donors, values approximate
# Procedure: In vivo inhibition (IC50) was determined based on Miller et al., “Inhibition of Mature IL-1β Production in Murine Macrophages and a Murine Model of Inflammation By WIN 67694, An Inhibitor of IL-1β Converting Enzyme, J. Immunol., 1994, 154, 1331, as follows:
# Human monocytes were isolated from heparinized leukopheresis units obtained through Biological Specialty Corporation (Lansdale, Pa.). Monocytes were purified by Ficoll-Hupaque (Pharmacia Fine Chemicals, Piscataway, N.J.) gradient centrifugation and more than 95% pure monocyte populations obtained by centrifugal elutriation. The assay was performed on duplicate samples of freshly isolated human monocytes, cultured in suspension at 37° C. and rotated gently in conical bottom polypropylene tubes (Sardstedt Inc., Princeton, N.J.). Human monocytes at a concentration of 5×10^6 cells/mL were resuspended in 1 mL of RPMI 1640 (a common tissue buffer from M.A. Bioproducts, Walkersville, Md.) containing 1% fetal calf serum (FCS) (HyClone, Logan, Utah) and 50 μg/mL gentamycin (Gibco, Grand Island, N.Y.). The cells were treated either with a compound of the invention (i.e. test compound) or with a non-inhibitor (control compound, typically 0.03% DMSO) for 15 minutes and then activated with 0.01% fixed Staphylococcus aureus (The Enzyme Center, Malden, Mass.) for 1 hour. The cells were then centrifuged and resuspended in 1 mL of cysteine, methionine-free RPMI media containing 1% dialyzed FCS (Hyclone). The cells were pretreated with a test compound or control compound for 15 minutes after which 0.01% fixed S. aureus plus 100 μCi Tran 35-S label (ICN, Irvine, Calif.) was added and the cells incubated at 37° C. for 1 hour. After incubation, […]. The cells were again pretreated with a test or control compound for 15 minutes and then 0.01% S. aureus for 2 hours. […]
# In the monocyte pulse chase assay, each test parameter was run in duplicate. […] When test compounds were evaluated, the percent inhibition of release of mature IL-β was calculated as follows: […]
# elastase = target: T1, elastase (Homo sapiens, UniProt P08246); assay: Elastase inhibition (in vitro); assay type: biochemical; conditions: in vitro assay per Cha; did not inhibit elastase
# T1 sequence (P08246 30-267): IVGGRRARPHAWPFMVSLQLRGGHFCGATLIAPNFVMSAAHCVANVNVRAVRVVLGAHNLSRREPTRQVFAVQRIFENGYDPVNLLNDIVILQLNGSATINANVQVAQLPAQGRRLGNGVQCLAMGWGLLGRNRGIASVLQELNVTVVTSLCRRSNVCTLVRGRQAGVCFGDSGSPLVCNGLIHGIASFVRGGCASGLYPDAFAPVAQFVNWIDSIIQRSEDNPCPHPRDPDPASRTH
# Text: It should be noted that the pyrimidine-based trifluoromethyl ketones (FIG. 2) were recently described as inhibitors of the serene protease, elastase. Since ICE is a cysteine protease and it is known in the prior art that trifluoromethyl ketones are rather poor inhibitors of cysteine proteases (See, Imperialia, B. and Ables, R. H., Biochemistly (1986), 2, 3760-7), it is expected that the pyrimidines of FIG. 2 would not be inhibitors of ICE. Also, it is known that ICE requires the aspartic acid side chain (—CH2COOH) at PI. Pyrimidines which inhibit elastase (FIG. 2) contain the valine side chain (—CHMe2).
# Compounds of examples 1, 6 and 7 were examined for their ability to inhibit elastase. The in vitro assay was carried out as described by Cha, Biochem. Pharmacol., (1975), 24, 2177-2185.
Structure (SMILES),IC50 [1] [µM],IC50 (elastase) [µM]
O=C(O)C[C@H](NC(=O)Cn1c(-c2ccc(F)cc2)ncc(NC(=O)OCc2ccccc2)c1=O)C(=O)COC(=O)c1c(Cl)cccc1Cl [Example 1],0.1 to 10,≥ 10
"O=C(O)C[C@H](NC(=O)Cn1c(-c2ccc(F)cc2)ncc(NC(=O)OCc2ccccc2)c1=O)C(=O)COc1cc(C(F)(F)F)nn1-c1ccccc1 [Example 6, N-[2-(5-Benzyloxycarbonylamino-6-oxo-2-(4-fluorophenyl)-1,6-dihydro-1-pyrimidinyl)acetoyl]-L-aspartic Acid 5-(1-phenyl-3-trifluoromethyl)pyrazoloxymethyl Ketone]",0.1 to 10,≥ 10
"CC(C)OC(=O)Nc1cnc(-c2ccccc2)n(CC(=O)N[C@@H](CC(=O)O)C(=O)COc2cc(C(F)(F)F)nn2-c2ccccc2)c1=O [Example 7, N-[2-(5-Isopropyloxycarbonylamino-6-oxo-2-phenyl-1,6-dihydro-1-pyrimidinyl)acetoyl]-L-aspartic Acid 5-(1-phenyl-3-trifluoromethyl)pyrazoloxymethyl Ketone]",0.1 to 10,≥ 10
